Measurements from patent publication US9796753B2, “N-substituted indenoisoquinolines and syntheses thereof” (Purdue Research Foundation, priority 2005, dated 2017).
Read-outs that look alike come from different tables or passages of the source.

Legend:
Assay type in all cases: cell-based
CNS SF-539 = experiment: COMPARE screening (NCI human cancer cell line screen), cytotoxicity GI50
Experimental: (§1) Selected compounds were tested for antiproliferative activity in the National Cancer Institute's developmental therapeutics assay 60 cell line screen (NCI60). The cells were incubated with the tested compounds at 100, 10, 1, 0.1, and 0.01 μM concentrations for 48 h before treatment with sulforhodamine B dye. Optical densities were recorded, and their ratios relative to that of the control were plotted as percentage growth against the log 10 of the tested compound concentrations.

colon HCT-116 = experiment: as above
Experimental: as §1

lung HOP-62 = experiment: as above
Experimental: as §1

melanoma UACC-62 = experiment: as above
Experimental: as §1

ovarian OVCAR-3 = experiment: as above
Experimental: as §1

prostate DU-145 = experiment: as above
Experimental: as §1

renal SN12C = experiment: as above
Experimental: as §1

breast MDA-MB-435 = experiment: as above
[1] = system: all human cancer cell lines successfully tested; experiment: NCI screen mean graph midpoint (MGM) for growth inhibition
Experimental: COMPARE screening. The compounds described herein were examined for antiproliferative activity against the human cancer cell lines in the National Cancer Institute screen (COMPARE screening), in which the activity of each compound was evaluated with approximately 55 different cancer cell lines of diverse tumor origins. […] Therefore, the MGM value represents an overall assessment of toxicity of the compound across numerous cell lines.
as §1
The cytotoxicities of the compounds to cultured cancer cells were measured in the National Cancer Institute's 60 cell line assay (a.k.a. NCI-60).

[2] = Table 1, average GI50 of all cell lines tested (approximately 55), test range 10^−8 to 10^−4 molar
[3] = Homo sapiens, CNSSF-539, read-out: cytotoxicity (GI50) CNS SF-539
[4] = Homo sapiens, HCT-116, read-out: cytotoxicity (GI50) colon HCT-116
[5] = Homo sapiens, HOP-62, read-out: cytotoxicity (GI50) lung HOP-62
[6] = Homo sapiens, UACC-62, read-out: cytotoxicity (GI50) melanoma UACC-62
[7] = Homo sapiens, OVCAR-3, read-out: cytotoxicity (GI50) ovarian OVCAR-3
[8] = Homo sapiens, DU-145, read-out: cytotoxicity (GI50) prostate DU-145
[9] = Homo sapiens, SN12C, read-out: cytotoxicity (GI50) renal SN12C
[10] = Homo sapiens, MDA-MB-435, read-out: cytotoxicity (GI50) breast MDA-MB-435
[11] = all human cancer cell lines successfully tested

Compound | GI50 (CNS SF-539) | GI50 (colon HCT-116) | GI50 (lung HOP-62) | GI50 (melanoma UACC-62) | GI50 (ovarian OVCAR-3) | GI50 (prostate DU-145) | GI50 (renal SN12C) | GI50 (breast MDA-MB-435) | MGM (mean GI50 across cell lines) [1, 2] | MGM (mean graph midpoint for growth inhibition) [1, 2] | other results
O=C1c2ccccc2-c2oc(=O)c3cc4c(cc3c21)OCO4 [Compound 4b] | > 100 µM | > 100 µM | 53.7 µM | > 100000 nM | > 100 µM | > 100 µM | > 100000 nM | > 100 µM | 57500 nM | – | –
O=C1c2ccccc2-c2oc(=O)c3cc([N+](=O)[O-])ccc3c21 [Compound 4c, 3-nitrobenz[d]indeno[1,2-b]pyran-5,11-dione] | – | – | – | – | – | – | – | – | 64600 nM | – | GI50 (CNS SF-539; [3]): > 100 µM; GI50 (colon HCT-116; [4]): 47.9 µM; GI50 (lung HOP-62; [5]): 18.2 µM; GI50 (melanoma UACC-62; [6]): 25100 nM; GI50 (ovarian OVCAR-3; [7]): > 100 µM; GI50 (prostate DU-145; [8]): > 100 µM; GI50 (renal SN12C; [9]): > 100000 nM; GI50 (breast MDA-MB-435; [10]): > 100 µM
O=C1c2ccccc2-c2oc(=O)c3ccccc3c21 [Compound 4d, Benz[d]indeno[1,2-b]pyran-5,11-dione] | – | – | – | – | – | – | – | – | >100000 nM | – | GI50 (CNS SF-539; [3]): > 100 µM; GI50 (colon HCT-116; [4]): > 100 µM; GI50 (lung HOP-62; [5]): > 100 µM; GI50 (melanoma UACC-62; [6]): > 100000 nM; GI50 (ovarian OVCAR-3; [7]): > 100 µM; GI50 (prostate DU-145; [8]): > 100 µM; GI50 (renal SN12C; [9]): > 100000 nM; GI50 (breast MDA-MB-435; [10]): > 100 µM
CC(C)(C)OC(=O)NCCCCCCCCn1c2c(c3ccccc3c1=O)C(=O)c1ccccc1-2 [Compound 5ag, 6-(8′-tert-BOC-Aminooctyl)-5,6-dihydro-5,11-dioxo-11H-indeno[1,2-c]isoquinoline] | 8.71 µM | 25.7 µM | 10.7 µM | 15500 nM | – | > 50.1 µM | > 50100 nM | > 50.1 µM | 19900 nM | – | –
CC(C)(C)OC(=O)NCCCCCCCCCCn1c2c(c3ccccc3c1=O)C(=O)c1ccccc1-2 [Compound 5ai, 6-(10′-tert-BOC-Aminodecyl)-5,6-dihydro-5,1-dioxo-11H-indeno[1,2-c]isoquinoline] | 42.7 µM | 60.3 µM | 28.8 µM | 43600 nM | > 100 µM | 97.7 µM | > 100000 nM | > 100 µM | 52500 nM | – | –
CC(C)(C)OC(=O)NCCCCCCCCCCCn1c2c(c3ccccc3c1=O)C(=O)c1ccccc1-2 [Compound 5aj, 6-(11′-tert-BOC-Anminoundecyl)-5,6-dihydro-5,11-dioxo-11H-indeno[1,2-c]isoquinoline] | 29.5 µM | 35.5 µM | 20.9 µM | 24000 nM | 70.8 µM | 91.2 µM | > 100000 nM | > 100 µM | – | 42.6 ± 5.35 µM | –
CC(C)(C)OC(=O)NCCCCCCCCCCCCn1c2c(c3ccccc3c1=O)C(=O)c1ccccc1-2 [Compound 5ak, 6-(12′-tert-BOC-Aminododecyl)-5,6-dihydro-5,1-dioxo-11H-indeno[1,2-c]isoquinoline] | 20.4 µM | > 100 µM | 32.4 µM | 27500 nM | > 100 µM | 91.2 µM | > 100000 nM | > 100 µM | 51300 nM | – | –
Cl.NCCn1c2c(c3ccccc3c1=O)C(=O)c1ccccc1-2 [Compound 5al] | 0.21 µM | 0.27 µM | 0.62 µM | 920 nM | 0.71 µM | 0.76 µM | 490 nM | 0.92 µM | – | 0.530 ± 0.320 µM | –
Cl.NCCCn1c2c(c3ccccc3c1=O)C(=O)c1ccccc1-2 [Compound 5am] | 0.25 µM | 0.18 µM | 0.2 µM | 260 nM | 1.38 µM | 0.22 µM | 160 nM | 0.78 µM | – | 0.32 ± 0.23 µM | –
Cl.NCCCCn1c2c(c3ccccc3c1=O)C(=O)c1ccccc1-2 [Compound 5an] | 0.1 µM | 0.1 µM | 0.08 µM | 50 nM | 0.52 µM | 0.01 µM | 40 nM | 0.84 µM | – | 0.16 ± 0.01 µM | –
Cl.NCCCCCn1c2c(c3ccccc3c1=O)C(=O)c1ccccc1-2 [Compound 5ao, 6-(5-Aminopentyl)-5,6-dihydro-5,11-diketo-11H-indeno[1,2-c]isoquinoline Hydrochloride] | – | – | – | – | – | – | – | – | – | 0.471 ± 0.054 µM | GI50 (CNS SF-539; [3]): 0.871 µM; GI50 (colon HCT-116; [4]): 0.2 µM; GI50 (lung HOP-62; [5]): 0.288 µM; GI50 (melanoma UACC-62; [6]): 1350 nM; GI50 (ovarian OVCAR-3; [7]): 0.708 µM; GI50 (prostate DU-145; [8]): 0.347 µM; GI50 (renal SN12C; [9]): 398 nM; GI50 (breast MDA-MB-435; [10]): 1.35 µM
Cl.NCCCCCCn1c2c(c3ccccc3c1=O)C(=O)c1ccccc1-2 [Compound 5ap, 6-(6-Aminohexyl)-5,6-dihydro-5,11-diketo-11H-indeno[1,2-c]isoquinoline Hydrochloride] | – | – | – | – | – | – | – | – | 1320 nM | – | GI50 (CNS SF-539; [3]): 1.23 µM; GI50 (colon HCT-116; [4]): 0.912 µM; GI50 (lung HOP-62; [5]): 1.29 µM; GI50 (melanoma UACC-62; [6]): 1620 nM; GI50 (ovarian OVCAR-3; [7]): 2 µM; GI50 (prostate DU-145; [8]): 0.603 µM; GI50 (renal SN12C; [9]): 1320 nM; GI50 (breast MDA-MB-435; [10]): 2.04 µM
CN(C)CCCn1c2c(c3cc4c(cc3c1=O)OCO4)C(=O)c1ccccc1-2 [Compound 5b] | 2.69 µM | < 0.01 µM | < 0.01 µM | 300 nM | 2.63 µM | 2.04 µM | 23 nM | 3.02 µM | 525 nM | – | –
COc1ccc2c(c1)C(=O)c1c-2n(CCCN)c(=O)c2ccccc12.Cl [Compound 5bg] | 0.038 µM | < 0.01 µM | < 0.01 µM | – | 0.028 µM | 0.014 µM | < 10 nM | 0.059 µM | – | 0.048 ± 0.024 µM | –
O=C1c2ccccc2-c2c1c1ccc([N+](=O)[O-])cc1c(=O)n2CCCN1CCOCC1 [Compound 5bi] | 0.095 µM | 0.038 µM | 0.021 µM | 380 nM | – | 0.085 µM | 309 nM | 1.23 µM | – | 0.632 ± 0.029 µM | –
COc1ccc2c(c1)C(=O)c1c-2n(CCCNCCO)c(=O)c2cc([N+](=O)[O-])ccc12.Cl [Compound 5bm] | < 0.01 µM | – | < 0.01 µM | < 10 nM | < 0.01 µM | < 0.03 µM | 12 nM | < 0.01 µM | 16 nM | – | –
Cl.O=C1c2ccccc2-c2c1c1ccccc1c(=O)n2CCCNCCO [Compound 5bo] | 0.55 µM | – | 0.195 µM | 178 nM | 0.55 µM | 0.174 µM | 269 nM | 0.49 µM | 339 nM | – | –
COc1cc2c3c(n(CCCn4ccnc4)c(=O)c2cc1OC)-c1cc2c(cc1C3=O)OCO2.Cl [Compound 5l, Hydrochloride] | 0.037 µM | < 0.01 µM | < 0.01 µM | < 10 nM | – | < 0.01 µM | < 10 nM | 0.02 µM | – | – | GI50 (ovarian OVCAR-3; Table 1, concentration corresponding to 50% growth inhibition, read-out: cytotoxicity (GI50) ovarian OVCAR-3): 0.085 µM
COc1cc2c3c(n(CCCNCCCNCCCn4c5c(c6ccccc6c4=O)C(=O)c4ccccc4-5)c(=O)c2cc1OC)-c1cc2c(cc1C3=O)OCO2.O=C(O)C(F)(F)F.O=C(O)C(F)(F)F [Compound 17a, 1,3-{6-(3-Amino-1-propyl)-5,6-dihydro-2,3-dimethoxy-8,9-methylenedioxy-5,1-dioxo-11H-indeno[1,2-c]isoquinoline}-{5′,6′-Dihydro-6′-(3′-amino-1′-propyl)-5′,11′-dioxo-11′H-indeno[1,2-c]isoquinoline}propane Bis(trifluoroacetate)] | – | – | – | – | – | – | – | – | – | – | GI50 (CNS SF-539; CNS SF-539, concentration corresponding to 50% growth inhibition, read-out: cytotoxicity (GI50 in μM) CNS SF-539): < 0.01 µM; GI50 (colon HCT-116; colon HCT-116, concentration corresponding to 50% growth inhibition, read-out: cytotoxicity (GI50 in μM) colon HCT-116): 0.022 µM; GI50 (lung HOP-62; lung HOP-62, concentration corresponding to 50% growth inhibition, read-out: cytotoxicity (GI50 in μM) lung HOP-62): 0.191 µM; GI50 (ovarian OVCAR-3; ovarian OVCAR-3, concentration corresponding to 50% growth inhibition, read-out: cytotoxicity (GI50 in μM) ovarian OVCAR-3): < 0.01 µM; GI50 (prostate DU-145; prostate DU-145, concentration corresponding to 50% growth inhibition, read-out: cytotoxicity (GI50 in μM) prostate DU-145): 0.01 µM; GI50 (breast MDA-MB-435; breast MDA-MB-435, concentration corresponding to 50% growth inhibition, read-out: cytotoxicity (GI50 in μM) breast MDA-MB-435): 0.155 µM; MGM (mean graph midpoint for growth inhibition) [1, 11]: 0.046 ± 0.010 µM
Bis-1,2-{(5,6-dihydro-5,11-diketo-11H-indeno[1,2-c]isoquinoline)-6-ethylamino-ethylamino}ethane Tetra(trifluoroacetate) [Compound 14j] | 0.012 µM | 0.2 µM | 0.977 µM | – | 0.032 µM | 0.085 µM | – | 0.126 µM | – | – | MGM (mean graph midpoint for growth inhibition) [1, 11]: 0.262 ± 0.100 µM
